{"source": "patent US8940739B2", "about": "“Compound of a reverse-turn mimetic and a production method and use therefor” (JW Pharmaceutical Corporation, priority 2010, dated 2015)", "key": {"[1]": {"system": "MV-4-11 (human, Acute Myeloid Leukemia cell line) cells", "experiment": "Cell growth inhibition assay, GI50 of MV-4-11", "format": "cell-based", "settings": "Homo sapiens, MV4-11, 72 h, MV-4-11 cells", "procedure,_shortened": "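MV-4-11 AML cells (5×10^4/well, IMDM with 10% FBS) treated in duplicate with serially diluted compounds for 72 hours at 37 °C. Viability read as absorbance at 490 nm after CellTiter 96 Aqueous One (MTS) addition; GI50 calculated from the concentration-response.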"}, "[2]": {"experiment": "MLM, hepatic metabolic stability", "format": "in vitro ADME", "settings": "mouse hepatic microsome, amount at 30 minutes compared with 0 minutes", "procedure": "For the sake of retaining efficacy of novel drugs and preventing side-effects, hepatic metabolic stability is regarded as very important. Hepatic metabolic stability is typically determined using microsome or S9. In the present test, a microsome having CYP450 as a main component, which plays a great role in metabolism, was used to evaluate the metabolic stability.\nThis assay was performed in a 200 l volume in a 13 ml glass tube using mouse hepatic microsome whose activity was measured.\nThe compounds of Examples 1 to 5 were dissolved in DMSO (dimethyl sulfoxide) to prepare a 25 mM stock solution, which was then diluted with 50% acetonitrile and used in the test. A potassium phosphate buffer (pH 7.4, final concentration 0.1M), MgCl2 (final concentration 0.1M), a diluted inventive compound stock solution (final concentration 1 mM), and a mouse microsome (final concentration 5 mg/ml) were added to the glass tube. The reaction was initiated by the addition of a cofactor NADPH (final concentration 12.5 mM) after pre-incubation at 37 for 3 minutes. The reaction was carried out at 37 for 10 minutes and 30 minutes, and then terminated with 1000 μl of acetonitrile, and the remaining inventive compound was extracted. The centrifugation was conducted at 3000 rpm for 10 minutes, after which the supernatant was dried and dissolved again in 150 μl of 50% acetonitrile and quantitatively analyzed by HPLC. 0 minutes and 30 minutes after reaction, the amounts of the compounds of the present invention were compared thus evaluating the extent of metabolic stability."}, "[3]": {"molecular_target": "cDNA-expressed human hepatic CYP3A4 (Homo sapiens (Human), UniProt P08684)", "sequence (P08684 whole entry)": "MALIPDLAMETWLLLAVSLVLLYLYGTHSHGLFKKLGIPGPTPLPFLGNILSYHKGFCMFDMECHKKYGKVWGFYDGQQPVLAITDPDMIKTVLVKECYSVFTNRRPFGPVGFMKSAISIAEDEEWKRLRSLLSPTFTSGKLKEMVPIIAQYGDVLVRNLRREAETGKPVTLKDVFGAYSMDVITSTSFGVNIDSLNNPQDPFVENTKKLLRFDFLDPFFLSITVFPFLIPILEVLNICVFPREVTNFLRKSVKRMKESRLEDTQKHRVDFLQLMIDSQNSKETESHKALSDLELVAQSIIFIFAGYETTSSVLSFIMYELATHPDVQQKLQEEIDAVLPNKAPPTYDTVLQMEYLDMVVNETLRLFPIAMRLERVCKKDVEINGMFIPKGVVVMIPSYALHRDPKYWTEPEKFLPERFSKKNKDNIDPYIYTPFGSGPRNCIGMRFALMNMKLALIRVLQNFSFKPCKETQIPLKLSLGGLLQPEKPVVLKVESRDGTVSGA", "experiment": "Measurement of CYP (IC50 of P450 CYP3A4), BFC substrate", "format": "in vitro ADME", "settings": "20 minutes", "procedure,_shortened": "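cDNA-expressed human CYP3A4 supersomes in 0.1M potassium phosphate pH 7.4 with 8.3 mM MgCl2, 1.67 mM EDTA and 0.25 mM NADPH; compounds in acetonitrile (<1% final). Reaction started with 30 µM BFC, 20 min at 37. 7-Hydroxy-4-trifluoromethyl-coumarin read by fluorescence (ex 409/em 530 nm).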"}, "[4]": {"experiment": "Blood drug concentration upon intravenous administration", "format": "in vivo", "settings": "SD rat, 12.5 mg/kg", "procedure": "Compound E-5 was intravenously injected in 12.5 mg/kg to SD rat. 5, 15, 30, […], 120, 240, 1140 minutes after injection, the blood was taken and the drug concentration in the blood was quantitatively analyzed using an analyzer HPLC/MS/MS."}, "[5]": {"experiment": "Solubility in physiological saline", "format": "physicochemical", "settings": "saline or isotonic, thermodynamic from solid, 10 mg in 0.25 ml", "procedure": "2) Evaluation of Solubility of Compound E-5\nCompound E-5, Compound E-5•HCl, and Compound E-5•H2SO4 were respectively weighed to 10 mg, and 0.25 ml of physiological saline was added, and they were vortex mixed. The supernatant was filtered with a 0.22 μm filter and quantitatively analyzed by HPLC."}}}
{"smiles": "C=CCN1CC(=O)N2[C@@H](Cc3ccc(O)cc3)C(=O)N(Cc3cccc4c(-c5ccc(C(=O)NN6CCN(C)CC6)cc5)cn(C)c34)C[C@@H]2N1C(=O)NCc1ccccc1", "note": "[Compound D-45]", "values": [{"measurement": "GI50", "setting": "[1]", "value": 1.9, "unit": "nM"}, {"measurement": "MLM (%)", "setting": "[2]", "value": 49.4, "unit": "%"}, {"measurement": "IC50", "setting": "[3]", "value": 2510, "unit": "nM"}]}
{"smiles": "C=CCN1CC(=O)N2[C@@H](Cc3ccc(O)cc3)C(=O)N(Cc3cccc4c(-c5ccc(NC(=O)c6ccc(N)nc6)cc5)cn(C)c34)C[C@@H]2N1C(=O)NCc1ccccc1", "note": "[Compound D-69]", "values": [{"measurement": "GI50", "setting": "[1]", "value": 1.1, "unit": "nM"}, {"measurement": "MLM (%)", "setting": "[2]", "value": 65, "unit": "%"}, {"measurement": "IC50", "setting": "[3]", "value": "> 25000", "unit": "nM"}]}
{"smiles": "C=CCN1CC(=O)N2[C@@H](Cc3ccc(O)cc3)C(=O)N(Cc3cccc4c(-c5ccc(NC(=O)Nc6ccccc6)cc5)cn(C)c34)C[C@@H]2N1C(=O)NCc1ccccc1", "note": "[Compound D-73]", "values": [{"measurement": "GI50", "setting": "[1]", "value": 14.4, "unit": "nM"}, {"measurement": "MLM (%)", "setting": "[2]", "value": 73.4, "unit": "%"}, {"measurement": "IC50", "setting": "[3]", "value": "> 25000", "unit": "nM"}]}
{"smiles": "C=CCN1CC(=O)N2[C@@H](Cc3ccc(O)cc3)C(=O)N(Cc3cccc4c(-c5ccc(NC(=O)NC6CCCCC6)cc5)cn(C)c34)C[C@@H]2N1C(=O)NCc1ccccc1", "note": "[Compound D-74]", "values": [{"measurement": "GI50", "setting": "[1]", "value": 11.2, "unit": "nM"}, {"measurement": "MLM (%)", "setting": "[2]", "value": 56.9, "unit": "%"}, {"measurement": "IC50", "setting": "[3]", "value": "> 25000", "unit": "nM"}]}
{"smiles": "C=CCN1CC(=O)N2[C@@H](Cc3ccc(O)cc3)C(=O)N(Cc3cccc4c(-c5ccc(NC(=O)Nc6ccc(OC)nc6)cc5)cn(C)c34)C[C@@H]2N1C(=O)NCc1ccccc1", "note": "[Compound D-77]", "values": [{"measurement": "GI50", "setting": "[1]", "value": 6.5, "unit": "nM"}, {"measurement": "MLM (%)", "setting": "[2]", "value": 65.4, "unit": "%"}, {"measurement": "IC50", "setting": "[3]", "value": "> 25000", "unit": "nM"}]}
{"smiles": "C=CCN1CC(=O)N2[C@@H](Cc3ccc(O)cc3)C(=O)N(Cc3cccc4c(-c5ccc(NC(=O)Nc6ccccc6)nc5)cn(C)c34)C[C@@H]2N1C(=O)NCc1ccccc1", "note": "[Compound D-85]", "values": [{"measurement": "GI50", "setting": "[1]", "value": 9.5, "unit": "nM"}, {"measurement": "MLM (%)", "setting": "[2]", "value": 64.3, "unit": "%"}, {"measurement": "IC50", "setting": "[3]", "value": "> 25000", "unit": "nM"}]}
{"smiles": "C=CCN1CC(=O)N2[C@@H](Cc3ccc(O)cc3)C(=O)N(Cc3cccc4c(-c5ccc(NC(=O)NCc6ccccc6)nc5)cn(C)c34)C[C@@H]2N1C(=O)NCc1ccccc1", "note": "[Compound D-93]", "values": [{"measurement": "GI50", "setting": "[1]", "value": 16.1, "unit": "nM"}, {"measurement": "MLM (%)", "setting": "[2]", "value": 68.5, "unit": "%"}, {"measurement": "IC50", "setting": "[3]", "value": 20400, "unit": "nM"}]}
{"smiles": "C=CCN1CC(=O)N2[C@@H](Cc3ccc(O)cc3)C(=O)N(Cc3cccc4c(C(=O)N5CCN(CC)CC5)cn(C)c34)C[C@@H]2N1C(=O)NCc1ccccc1", "note": "[Compound E-5, (6S,9aS)-2-allyl-N-benzyl-8-((3-(4-ethylpiperazine-1-carbonyl)-1-methyl-1H-indol-7-yl)methyl)-6-(4-hydroxybenzyl)-4,7-dioxooctahydro-1H-pyrazino[2,1-c][1,2,4]-triazine-1-carboxamide]", "values": [{"measurement": "GI50", "setting": "[1]", "value": 11.6, "unit": "nM"}, {"measurement": "AUC", "setting": "[4]", "value": 4530, "unit": "ng·h/mL"}, {"measurement": "half-life", "setting": "[4]; read-out: Half-life (t ½, hr) (converted)", "value": 1.59, "unit": "h"}, {"measurement": "IC50", "setting": "[3]", "value": 8040, "unit": "nM"}, {"measurement": "solubility", "setting": "[5]", "value": 68, "unit": "µg/mL"}]}
{"smiles": "C=CCN1CC(=O)N2[C@@H](Cc3ccc(O)cc3)C(=O)N(Cc3cccc4c(C(=O)Nc5ccc(N6CCCCC6)nc5)cn(C)c34)C[C@@H]2N1C(=O)NCc1ccccc1", "note": "[Compound G-35]", "values": [{"measurement": "GI50", "setting": "[1]", "value": 1.4, "unit": "nM"}, {"measurement": "MLM (%)", "setting": "[2]", "value": 34.9, "unit": "%"}, {"measurement": "IC50", "setting": "[3]", "value": 12200, "unit": "nM"}]}
{"smiles": "C=CCN1CC(=O)N2C(CN(Cc3cccc4c(C(=O)Nc5ccc(N6CCOCC6)nc5)cn(C)c34)C(=O)[C@@H]2Cc2ccc(O)cc2)N1C(=O)NCc1ccccc1", "note": "(some centres unmarked) [Compound G-36]", "values": [{"measurement": "GI50", "setting": "[1]", "value": 1.3, "unit": "nM"}, {"measurement": "MLM (%)", "setting": "[2]", "value": 36, "unit": "%"}, {"measurement": "IC50", "setting": "[3]", "value": 21100, "unit": "nM"}]}
{"smiles": "C=CCN1CC(=O)N2C(Cc3ccc(O)cc3)C(=O)N(Cc3cccc4c(C(=O)Nc5ccc(N6CCN(c7ccccc7OC)CC6)nc5)cn(C)c34)CC2N1C(=O)NCc1ccccc1", "note": "(centres unmarked) [Compound G-59]", "values": [{"measurement": "GI50", "setting": "[1]", "value": 4.9, "unit": "nM"}, {"measurement": "MLM (%)", "setting": "[2]", "value": 61.9, "unit": "%"}, {"measurement": "IC50", "setting": "[3]", "value": "> 25000", "unit": "nM"}]}
{"smiles": "C=CCN1CC(=O)N2C(Cc3ccc(O)cc3)C(=O)N(Cc3cccc4c(C(=O)Nc5ccc(N6CCN(Cc7ccc(OC)cc7)CC6)nc5)cn(C)c34)CC2N1C(=O)NCc1ccccc1", "note": "(centres unmarked) [Compound G-60]", "values": [{"measurement": "GI50", "setting": "[1]", "value": 6.5, "unit": "nM"}, {"measurement": "MLM (%)", "setting": "[2]", "value": 52.8, "unit": "%"}, {"measurement": "IC50", "setting": "[3]", "value": 21500, "unit": "nM"}]}
{"smiles": "C=CCN1CC(=O)N2[C@@H](Cc3ccc(O)cc3)C(=O)N(Cc3cccc4c(-c5ccc(NC(=S)NC(=O)OCC)nc5)cn(C)c34)C[C@@H]2N1C(=O)NCc1ccccc1", "note": "[Compound H-4]", "values": [{"measurement": "GI50", "setting": "[1]", "value": 15, "unit": "nM"}, {"measurement": "MLM (%)", "setting": "[2]", "value": 66.8, "unit": "%"}, {"measurement": "IC50", "setting": "[3]", "value": "> 25000", "unit": "nM"}]}
